Results published in patent US4399286A, “Antiarrhythmic phenethylpiperidine compounds” (Mead Johnson & Company, priority 1981, dated 1983).

Experiments:
rabbit atrium = assay: in vitro rabbit atrium test, steady state refractory period; conditions: rabbit left atrium, Chenoweth's solution, 30° C., stimulated at 30/minute, five minute interval
Protocol: 3. […] In this test, the left atrium is placed in Chenoweth's solution warmed to 30° C. and irrigated with 95% oxygen:5% carbon dioxide. The lower end of the atrium is attached to a small hook fixed in the bath and the upper end is connected to a transducer to record contractile activity. The atrium is electrically stimulated at a basic rate of 30/minute by employing square wave pulses of 10 millisecond duration at 1.2 to 1.5 times threshold voltage. A test compound is introduced into the bath and the test repeated after a five minute interval. A dose-response relationship is obtained with additional doses of the test compound. […] This value is designated the EC50.

[1] = system: chloroform-induced arrhythmia; assay: inhibition of chloroform-induced arrhythmia in the mouse (J. W. Lawson method); type: in vivo; conditions: ip, intraperitoneal administration, read-out: ED50, prevention of chloroform-induced arrhythmia
From the text: 2. In the mouse, another in vivo test involves the inhibition of chloroform-induced arrhythmia according to the method of J. W. Lawson, Journal of Pharmacology and Experimental Therapeutics, 160, 22 (1968).

| Compound | EC50 (effective concentration which reduces to 50% the maximal increase in the steady state refractory period of the atrium) (rabbit atrium) [µg/mL] | ED50 [1] [mg/kg] |
| --- | --- | --- |
| COc1ccc(C(=N)Nc2ccccc2CCC2CCCCN2C)cc1 (stereo not drawn) [Example 15, N-[2-[2-(1-Methyl-2-piperidinyl)ethyl]phenyl]-p-anisamidine] | 10 | – |
| COc1ccc(NC(=O)Nc2ccccc2CCC2CCCCN2C)cc1 (stereo not drawn) [Example 2, 4'-Methoxy-2-[2-(1-methyl-2-piperidinyl)ethyl]carbanilide] | 29 | 46 |
| CN1CCCCC1CCc1ccccc1NC(=S)Nc1ccccc1 (stereo not drawn) [Example 9, 2-[2-(1-Methyl-2-piperidinyl)ethyl]thiocarbanilide] | 5.9 | – |
| CN1CCCCC1CCc1ccccc1NC(=O)Nc1ccccc1 (stereo not drawn) [Example 1, 2-[2-(1-Methyl-2-piperidinyl)ethyl]carbanilide] | 1.5 | 23 |
